Where two headings read alike, the source gives them in different places.
Key:
[1] = Solubility in water (Cw), saturated aqueous solution, absorption spectrum; assay type: physicochemical
Protocol: (§1) 10 mg of the obtained PTPP derivative was dispersed in 0.50 mL of water and allowed to stand for 3 days to prepare a saturated aqueous solution. The supernatant of the aqueous solution was collected and diluted with methanol. Thereafter, the absorption spectrum was measured and the solubility in water (Cw) was calculated using the molar absorption coefficient of the PTPP derivative in methanol. In a similar manner to the above, the solubility in dioxane (Co) was also calculated.

[2] = Solubility in dioxane (Co), absorption spectrum; assay type: physicochemical
Protocol: as §1

[3] = Partition from aqueous phase to water-immiscible organic solvent (octanol or chloroform); assay type: physicochemical; settings: octanol or chloroform added to the aqueous solution and stirred; derivative promptly moved to the organic phase
Protocol: A water-immiscible organic solvent, such as octanol or chloroform, was added to the aqueous solution of the PTPP derivative (Cw=17.3 mM, Co=0.245 mM) and stirred. This caused the PTPP derivative dissolved in the aqueous phase to promptly move to the organic phase.

[4] = Quantum yield of 1O2 production, near infrared emission at 1,270 nm; assay type: physicochemical; settings: aqueous PTPP derivative solution (20 μM), laser 558 nm, relative to methylene blue
Source text: When the photosensitizer “Photofrin” that has been practically used in PDT treatment is used, the quantum yield of ^1O2 is 0.53 (J. Photochem. Photobiol. B, 92 (2008), 59-65). In contrast, when the PTPP derivatives prepared in Examples 2, 3, and 4 were used, the quantum yields of ^1O2 were 0.62, 0.69, and 0.73, respectively. This explains that the water-soluble porphyrins of the present invention have high photoexcitation efficiency and can thus be suitably used for PDT. The quantum yields of the ^1O2 production were determined by directly measuring the near infrared emission near 1,270 nm obtained by deactivation of the produced ^1O2.
Specifically, an aqueous PTPP derivative solution (20 μM) was irradiated with a laser beam of 558 nm to excite the PTPP derivative, and the emission spectrum of the produced ^1O2 was measured. The quantum yield of the ^1O2 production was calculated by comparing the emission intensity at 1,270 nm obtained with respect to the aqueous PTPP derivative solution with the emission intensity at 1,270 nm obtained in the same manner as above with respect to methylene blue (quantum yield: 0.52).

[5] = test system: yeast (Saccharomyces cerevisiae); test: Biocompatibility: concentration of PTPP derivative adsorbed on yeast cells (Cad), microscope absorption spectrophotometry; assay type: cell-based; settings: 10 μM of PTPP derivative added to a yeast solution (1.0×10^4 cell/mL); Nd = below the detection limit
Protocol: Subsequently, the biocompatibility of this PTPP derivative was assessed in the following manner. An aqueous solution of this PTPP derivative (0.5 mL, 50 μm) was added to the cell suspension (1.0 mL; ca. 2.5×10^4 cell/mL) of yeast, and then an aqueous solution of agar (1 wt %; 1.0 mL) was added. A portion of the prepared aqueous solution containing the PTPP derivative (10 μm), yeast (Saccharomyces cerevisiae; ca. 1.0×10^4 cell/mL) and agar (0.4 wt %) was placed on a space (1 cm×1 cm) surrounded by a silicone spacer (thickness 50 μm) put on a glass slide, covered with a cover glass. The glass slide was set on the stage of an optical microscope. Thereafter, appropriate bacterial cells were positioned in the center of the field of view, and the Q-band absorption spectrum of the PTPP derivative near 560 nm was measured. Then, the concentration (Cad) of the PTPP derivative adsorbed on the bacterial cells was calculated from absorption spectrophotometry based on the Lambert-Beer law.

[6] = cited from earlier work
[7] = saturated aqueous solution, allowed to stand for 3 days

Molecule	Solubility Cw (solubility in water) [1, 7] [µM]	Solubility Co (solubility in dioxane) ([2]; solvent dioxane)	quantum yield of 1O2 [4]	Cad (concentration of PTPP derivative adsorbed on bacterial cell) [5] [mM]	further results
COCCOCCOCCO[P-]123(OCCOCCOCCOC)n4c5ccc4C(c4ccccc4)=C4C=CC(=[N+]41)C(c1ccccc1)=c1ccc(n12)=C(c1ccccc1)C1=[N+]3C(=C5c2ccccc2)C=C1.Cl [Example 1]	17300	245 µM			partition to the organic phase [3]: high partition coefficient to the organic phase
COCCOCCO[P-]123(OCCOCCOC)n4c5ccc4C(c4ccccc4)=C4C=CC(=[N+]41)C(c1ccccc1)=c1ccc(n12)=C(c1ccccc1)C1=[N+]3C(=C5c2ccccc2)C=C1.Cl [Example 2]	13900	140 µM	0.62	17.8	
CCOCCOCCO[P-]123(OCCOCCOCC)n4c5ccc4C(c4ccccc4)=C4C=CC(=[N+]41)C(c1ccccc1)=c1ccc(n12)=C(c1ccccc1)C1=[N+]3C(=C5c2ccccc2)C=C1.Cl [Example 3]	13000	169 µM	0.69	27.5	
CCCCOCCOCCO[P-]123(OCCOCCOCCCC)n4c5ccc4C(c4ccccc4)=C4C=CC(=[N+]41)C(c1ccccc1)=c1ccc(n12)=C(c1ccccc1)C1=[N+]3C(=C5c2ccccc2)C=C1.Cl [Example 4]	5380	293 µM	0.73	74.6	
CCCCCCOCCOCCO[P-]123(OCCOCCOCCCCCC)n4c5ccc4C(c4ccccc4)=C4C=CC(=[N+]41)C(c1ccccc1)=c1ccc(n12)=C(c1ccccc1)C1=[N+]3C(=C5c2ccccc2)C=C1.Cl [Example 5]	2070	244 µM		146	
CCCCCCOCCO[P-]123(OCCOCCCCCC)n4c5ccc4C(c4ccccc4)=C4C=CC(=[N+]41)C(c1ccccc1)=c1ccc(n12)=C(c1ccccc1)C1=[N+]3C(=C5c2ccccc2)C=C1.Cl [Example 6]				142	Solubility Cw (solubility in water) [1]: 1110 µM; Solubility Co (solubility in dioxane) [2]: 242 µM
CCCCCCCCCCCCOCCOCCOCCOCCOCCOCCOCCOCCOCCO[P-]123(OCCOCCOCCOCCOCCOCCOCCOCCOCCOCCCCCCCCCCCC)n4c5ccc4C(c4ccccc4)=C4C=CC(=[N+]41)C(c1ccccc1)=c1ccc(n12)=C(c1ccccc1)C1=[N+]3C(=C5c2ccccc2)C=C1.Cl [Example 7]	14460	≧25 mM			
CCCCCCCCCCCCCCCCCCOCCOCCOCCOCCO[P-]123(OCCOCCOCCOCCOCCCCCCCCCCCCCCCCCC)n4c5ccc4C(c4ccccc4)=C4C=CC(=[N+]41)C(c1ccccc1)=c1ccc(n12)=C(c1ccccc1)C1=[N+]3C(=C5c2ccccc2)C=C1.Cl [Example 8]	7960	≧25 mM			
CN(C)c1ccc2nc3ccc(=[N+](C)C)cc-3sc2c1 [methylene blue]					quantum yield of 1O2 ([6]; methylene blue reference standard value): 0.52
Photofrin					quantum yield of 1O2 ([6]; Photofrin, from J. Photochem. Photobiol. B, 92 (2008), 59-65): 0.53
